Counter-ions that a name gives are not always drawn. Like-named read-outs stand apart in the source and are kept apart here.
How the values were obtained:
HCoV-OC43-WT [1] = system: HCoV-OC43-WT; design: species or system BALB/c mice
in vitro = details: mouse
HCoV-NL63 [2] = assay: microbe, parasite or virus in culture; details: Human coronavirus NL63, LLC-MK2, 72 h, read-out: HCoV-NL63 EC50
MHV-A59 [3] = assay: microbe, parasite or virus in culture; details: Murine coronavirus, 72 h, read-out: MHV-A59 EC50
[4] = system: four CoVs (HCoV-OC43, HCoV-NL63, MERS-CoV, MHV-A59); assay: organism not typed; type: cell-based; details: read-out: EC50 values against all CoVs
HCoV-NL63 [5] = details: for EC50: read-out: HCoV-NL63 EC50
MHV-A59 [6] = details: for EC50: read-out: MHV-A59 EC50
HCoV-OC43-WT [7] = details: for EC50: read-out: HCoV-OC43 EC50
MERS-CoV [8] = details: for EC50: read-out: MERS-CoV EC50
HCoV-229E = details: read-out: EC50, HCoV-229E; CoV-infected human primary cells; cited from earlier work
MERS-CoV [9] = details: read-out: EC50, MERS-CoV; cited from earlier work
[10] = system: pseudotyped MERS-CoV (HIV-1 backbone, spike protein of MERS-CoV); type: cell-based
SARS-CoV [11] = details: mouse, in vivo; cited from earlier work
SARS-CoV [12] = details: cited from earlier work
MERS-CoV [13] = details: cited from earlier work
rOC43-ns2Del-Rluc = type: in vivo, BALB/c mice

Row | Compound | CC50 (in vitro) | EC50 (HCoV-NL63 [2]) | EC50 (MHV-A59 [3]) | further results
1 | CCN(CC)CCCC(C)Nc1ccnc2cc(Cl)ccc12 (stereo not shown) [Chloroquine] | > 20 µM | 4.89 µM | 15.9 µM | antiviral activity in vivo, positive control (HCoV-OC43-WT [1]; mouse): showed antiviral activity
2 | CN(C)CCN(Cc1ccc(Cl)cc1)c1ccccn1 [Chloropyramine] | > 20 µM | 14.2 µM | 2.42 µM | –
3 | COc1cc2c3cc1Oc1c(OC)c(OC)cc4c1[C@@H](Cc1ccc(O)c(c1)Oc1ccc(cc1)C[C@@H]3N(C)CC2)N(C)CC4 [Berbamine] | > 20 µM | 9.46 µM | 10.9 µM | –
4 | COc1ccc2cc1Oc1ccc(cc1)C[C@H]1c3cc(c(OC)cc3CCN1C)Oc1c(OC)c(OC)cc3c1[C@H](C2)N(C)CC3 [Tetrandrine] | > 20 µM | 2.05 µM | 4.81 µM | –
5 | CNCCCN1c2ccccc2CCc2ccccc21 [Desipramine] | > 20 µM | 6.68 µM | 8.75 µM | –
6 | CC[C@H]1/C=C/C=C/C[C@@H](C)[C@H](O)[C@@](C)(O)C(=O)[C@@H](C)[C@H](O)[C@@H](C)C(=O)[C@@H](C)[C@H](O)[C@@H](C)/C=C/C(=O)O[C@@H]2[C@H](C)[C@H](CC1)O[C@]1(CC[C@H](C)[C@H](C[C@@H](C)O)O1)[C@H]2C [Oligomycin] | 6.78 µM | 2.63 µM | 6.43 µM | –
7 | COc1c(C)c2c(c(O)c1C/C=C(\C)CCC(=O)O)C(=O)OC2 [Mycophenolic acid] | 4.18 µM | 0.18 µM | 0.17 µM | CC50 (BHK-21 cells; hamster): 3.55 µM; EC50 [4]: < 5 µM; CC50 (LLC-MK2 cells; rhesus monkey): 3.44 µM; SI (CC50/EC50), HCoV-NL63 (HCoV-NL63 [5]): 19.11
8 | C[C@@H]1C[C@@H]([C@H](O)CC2CC(=O)NC(=O)C2)C(=O)[C@@H](C)C1 [Cycloheximide] | 3.19 µM | 2.64 µM | 5.21 µM | –
9 | CC(=O)[O][Hg][c]1ccccc1 [Phenylmercuric acetate] | – | – | – | CC50 (BHK-21 cells): 5.35 µM; CC50 (Vero E6 cells): 5.39 µM; EC50 (MHV-A59 [6]): 6.81 µM; CC50 (DBT cells): 5.97 µM; CC50 (LLC-MK2 cells): 5.47 µM; EC50 (HCoV-NL63 [5]): 6.79 µM; EC50 (HCoV-OC43-WT [7]): 2.17 µM; EC50 (MERS-CoV [8]): 6.44 µM
10 | Nc1ccc(/N=N/c2ccccc2)c(N)n1 [Phenazopyridine] | > 20 µM | 2.02 µM | 0.77 µM | CC50 (BHK-21 cells; hamster): > 20 µM; EC50 [4]: < 5 µM; SI (CC50/EC50), MHV-A59 (MHV-A59 [6]): > 25.97; CC50 (LLC-MK2 cells; rhesus monkey): > 20 µM
11 | Clc1ccccc1CN1CCc2sccc2C1 [Ticlopidine] | > 20 µM | 15.7 µM | 14.3 µM | –
12 | C=CCc1ccccc1OCC(O)CNC(C)C (stereo not shown) [Alprenolol] | > 20 µM | 11.9 µM | 14 µM | –
13 | COC(=O)[C@H]1[C@@H](O)[C@@]2(O)c3c(OC)cc(O[C@@H]4O[C@@H]([C@H](O)CO)CO[C@H]4OC)cc3O[C@@]2(c2ccc(OC)cc2)[C@@H]1c1ccccc1 [silvestrol] | – | – | – | EC50 (HCoV-229E): 0.003 µM; EC50 (MERS-CoV [9]): 0.0013 µM
14 | C[C@H]1[C@H]2CC[C@H]3[C@@H]4CC=C5C[C@@H](N(C)C)CC[C@]5(C)[C@H]4CC[C@]23CN1C [Conessine] | > 20 µM | 10.8 µM | 11.5 µM | –
15 | O=C(/C=C/c1ccccc1)c1ccc(O)cc1 [4'-Hydroxychalcone] | > 20 µM | 7.25 µM | 9.75 µM | –
16 | CCCCCC[C@H]1C(=O)O[C@H](C)[C@H](NC(=O)c2cccc(NC=O)c2O)C(=O)O[C@@H](C)[C@@H]1OC(=O)CC(C)C [Antimycin A] | 3.98 µM | 6.05 µM | 5.42 µM | –
17 | COc1ccc(Cc2nccc3cc(OC)c(OC)cc23)cc1OC [Papaverine] | 12.4 µM | 7.32 µM | 11.5 µM | –

Row | Compound | CC50 (in vitro) | EC50 (HCoV-NL63 [2]) | EC50 (MHV-A59 [3]) | further results
18 | COc1c(C)c2c(c(O)c1C/C=C(\C)CCC(=O)OCCN1CCOCC1)C(=O)OC2 [Mycophenolate mofetil] | 3.33 µM | 0.23 µM | 0.27 µM | CC50 (BHK-21 cells; hamster): 3.43 µM; EC50 [4]: < 5 µM; CC50 (LLC-MK2 cells; rhesus monkey): 3.01 µM
19 | CCN(CC)CCNc1ccc(CO)c2sc3ccccc3c(=O)c12 [Hycanthone] | 4.19 µM | 5.76 µM | 5.78 µM | –
20 | CCCCCCOc1ccccc1C(N)=O [Exalamide] | > 20 µM | 17.5 µM | 16.4 µM | –
21 | CC[C@@H](C(=O)[C@@H](C)[C@@H](O)[C@H](C)[C@@H]1O[C@@H]([C@@H](CC)C(=O)O)CC[C@@H]1C)[C@H]1O[C@]2(C=C[C@@H](O)[C@]3(CC[C@@](C)([C@H]4CC[C@](O)(CC)[C@H](C)O4)O3)O2)[C@H](C)C[C@@H]1C [Salinomycin sodium] | 2.45 µM | 5.71 µM | 5.16 µM | –
22 | COc1ccc2c(c1)[nH]c1c(C)nccc12 [Harmine] | > 20 µM | 13.5 µM | 13.8 µM | –
23 | CN(C)CCCN1c2ccccc2Sc2ccccc21 [Promazine] | > 20 µM | 1.37 µM | 0.51 µM | –
24 | O=C(Nc1ccccc1)OCC(CN1CCCCC1)OC(=O)Nc1ccccc1 (stereo not shown) [Diperodon] | 14.5 µM | 4.91 µM | 1.98 µM | –
25 | CCN(CC)CCOc1ccc2c(c1)C(=O)c1cc(OCCN(CC)CC)ccc1-2 [Tilorone] | > 20 µM | 6.89 µM | 16.1 µM | –
26 | CC(=O)Oc1cc2c(c(C)c1OC(C)=O)CC=C1[C@@]2(C)CC[C@@]2(C)C3C[C@](C)(C(=O)O)CC[C@]3(C)CC[C@]12C (stereo partly shown) [Dihydrocelastryl diacetate] | – | – | – | CC50 (BHK-21 cells): > 20 µM; CC50 (Vero E6 cells): > 20 µM; EC50 (MHV-A59 [6]): 4.24 µM; CC50 (DBT cells): > 20 µM; CC50 (LLC-MK2 cells): > 20 µM; EC50 (HCoV-NL63 [5]): 0.65 µM; EC50 (HCoV-OC43-WT [7]): 1.71 µM; EC50 (MERS-CoV [8]): 10.6 µM
27 | Monensin sodium | – | – | – | EC50 [4]: < 5 µM; EC50 (MHV-A59 [6]): 0.18 µM; EC50 (HCoV-NL63 [5]): 1.54 µM; EC50 (HCoV-OC43-WT [7]): 3.81 µM; EC50 (MERS-CoV [8]): 3.27 µM
28 | COc1cc2nc(N3CCN(C(=O)C4COc5ccccc5O4)CC3)nc(N)c2cc1OC (stereo not shown) [Doxazosin mesylate] | > 20 µM | 14 µM | 14.5 µM | –
29 | COC(=O)[C@]1(C)CC[C@]2(C)CC[C@]3(C)C4=CC=C5C(=CC(=O)C(O)=C5C)[C@]4(C)CC[C@@]3(C)[C@@H]2C1 [Pristimerin] | > 20 µM | 1.63 µM | 9.17 µM | –
30 | Cc1cc(/C=C/c2ccc3cc(N(C)C)ccc3[n+]2C)c(C)n1-c1ccccc1 [Pyrvinium pamoate] | – | 3.35 µM | – | EC50 [4]: < 5 µM
31 | CC[C@H]1CN2CCc3cc(OC)c(OC)cc3[C@@H]2C[C@@H]1C[C@H]1NCCc2cc(OC)c(OC)cc21 [Emetine] | 3.51 µM | 1.43 µM | 0.12 µM | CC50 (BHK-21 cells; hamster): 2.69 µM; EC50 [4]: < 5 µM; CC50 (LLC-MK2 cells; rhesus monkey): 3.63 µM; luciferase activity reduced compared with control [10]: 50 fold; SI (CC50/EC50), MERS-CoV (MERS-CoV [8]): 9.06
32 | CCC(CC)COC(=O)[C@H](C)N[P@](=O)(OC[C@H]1O[C@@](C#N)(c2ccc3c(N)ncnn23)[C@H](O)[C@@H]1O)Oc1ccccc1 [GS-5734] | – | – | – | lung viral load (SARS-CoV [11]): significantly reduced the lung viral load; IC50, SARS-CoV replication (SARS-CoV [12]): submicromolar; IC50, MERS-CoV replication (MERS-CoV [13]): submicromolar
33 | CC(C)[C@@H]1NC(=O)[C@H](C)OC(=O)[C@@H](C(C)C)NC(=O)[C@@H](C(C)C)OC(=O)[C@H](C(C)C)NC(=O)[C@H](C)OC(=O)[C@@H](C(C)C)NC(=O)[C@@H](C(C)C)OC(=O)[C@H](C(C)C)NC(=O)[C@H](C)OC(=O)[C@@H](C(C)C)NC(=O)[C@@H](C(C)C)OC1=O [Valinomycin] | 5.11 µM | 1.89 µM | 6.78 µM | –
34 | O[C@H]1[C@H]2c3cc4c(cc3CN3CCC(=C[C@@H]1O)[C@H]23)OCO4 [Lycorine] | 3.51 µM | 0.47 µM | 0.31 µM | CC50 (BHK-21 cells; hamster): 4.37 µM; HCoV-OC43 nucleocapsid protein in mouse brain coronal sections (IHC) (HCoV-OC43-WT [1]; in vivo): present only in the PBS-DMSO-treated group, not in the lycorine-treated group; viral loads in the brain and spinal cord (HCoV-OC43-WT [1]; mouse, in vivo): under the limit of detection; CC50 (LLC-MK2 cells; rhesus monkey): 3.81 µM; bioluminescence signal in the brain (rOC43-ns2Del-Rluc; 15 mg/kg daily, 2, 3 and 4 days postinoculation): no signal was detected; Rluc activity in PBS-DMSO-treated mice relative to treated mice (rOC43-ns2Del-Rluc; mouse brain, 72 h postinoculation, 15 mg/kg): ~2 × 10^5 fold; SI (CC50/EC50), HCoV-OC43 (HCoV-OC43-WT [7]): 29.13
